The values below are quoted from earlier work in patent publication US20070053968A1 (Wyeth, priority 2005, published 2007).

For data set [1] the following is noted: oral administration, versus venlafaxine, ODV or other salts of ODV.
For data set [2] the following is noted: compared with ODV free base.
The conditions of data set [3]: compared with ODV free base. This is another data set of the same source.
The target of another data set is dopamine re-uptake (Homo sapiens, UniProt Q01959).
Data set [4] addresses H1-histaminergic receptors (Homo sapiens, UniProt P35367).
The conditions of data set [5]: versus venlafaxine.
Data set [6] has as its target neuronal norepinephrine re-uptake (Homo sapiens, UniProt P23975).

dopamine re-uptake, sequence (Q01959 whole entry): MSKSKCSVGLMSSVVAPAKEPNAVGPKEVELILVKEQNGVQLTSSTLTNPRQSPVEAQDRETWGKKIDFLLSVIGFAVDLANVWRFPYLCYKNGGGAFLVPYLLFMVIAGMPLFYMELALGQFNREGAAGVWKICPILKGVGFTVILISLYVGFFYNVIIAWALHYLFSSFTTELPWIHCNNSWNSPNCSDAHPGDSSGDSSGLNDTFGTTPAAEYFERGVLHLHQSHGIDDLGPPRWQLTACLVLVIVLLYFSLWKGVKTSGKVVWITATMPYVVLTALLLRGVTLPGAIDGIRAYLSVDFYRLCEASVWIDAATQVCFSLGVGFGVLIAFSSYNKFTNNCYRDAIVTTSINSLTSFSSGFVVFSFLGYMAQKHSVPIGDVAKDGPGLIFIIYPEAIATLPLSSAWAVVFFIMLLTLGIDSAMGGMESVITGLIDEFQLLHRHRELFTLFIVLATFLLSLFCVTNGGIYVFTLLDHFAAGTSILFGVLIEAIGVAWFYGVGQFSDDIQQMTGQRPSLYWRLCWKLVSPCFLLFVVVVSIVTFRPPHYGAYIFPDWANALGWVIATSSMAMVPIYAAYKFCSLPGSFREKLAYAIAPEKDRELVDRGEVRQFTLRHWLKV
H1-histaminergic receptors, sequence (P35367 whole entry): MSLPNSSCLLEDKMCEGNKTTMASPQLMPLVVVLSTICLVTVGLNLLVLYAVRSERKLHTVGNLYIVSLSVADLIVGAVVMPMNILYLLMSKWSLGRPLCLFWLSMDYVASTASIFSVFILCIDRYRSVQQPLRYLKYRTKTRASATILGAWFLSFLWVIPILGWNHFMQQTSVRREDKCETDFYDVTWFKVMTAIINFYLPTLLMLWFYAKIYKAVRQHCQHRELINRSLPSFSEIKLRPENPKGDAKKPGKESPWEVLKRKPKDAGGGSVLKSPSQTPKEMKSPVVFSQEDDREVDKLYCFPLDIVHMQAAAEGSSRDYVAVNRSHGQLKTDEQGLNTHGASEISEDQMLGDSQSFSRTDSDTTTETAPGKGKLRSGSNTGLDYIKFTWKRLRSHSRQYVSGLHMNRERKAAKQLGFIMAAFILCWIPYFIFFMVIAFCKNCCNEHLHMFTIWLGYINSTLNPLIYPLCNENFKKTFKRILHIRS
neuronal norepinephrine re-uptake, sequence (P23975 whole entry): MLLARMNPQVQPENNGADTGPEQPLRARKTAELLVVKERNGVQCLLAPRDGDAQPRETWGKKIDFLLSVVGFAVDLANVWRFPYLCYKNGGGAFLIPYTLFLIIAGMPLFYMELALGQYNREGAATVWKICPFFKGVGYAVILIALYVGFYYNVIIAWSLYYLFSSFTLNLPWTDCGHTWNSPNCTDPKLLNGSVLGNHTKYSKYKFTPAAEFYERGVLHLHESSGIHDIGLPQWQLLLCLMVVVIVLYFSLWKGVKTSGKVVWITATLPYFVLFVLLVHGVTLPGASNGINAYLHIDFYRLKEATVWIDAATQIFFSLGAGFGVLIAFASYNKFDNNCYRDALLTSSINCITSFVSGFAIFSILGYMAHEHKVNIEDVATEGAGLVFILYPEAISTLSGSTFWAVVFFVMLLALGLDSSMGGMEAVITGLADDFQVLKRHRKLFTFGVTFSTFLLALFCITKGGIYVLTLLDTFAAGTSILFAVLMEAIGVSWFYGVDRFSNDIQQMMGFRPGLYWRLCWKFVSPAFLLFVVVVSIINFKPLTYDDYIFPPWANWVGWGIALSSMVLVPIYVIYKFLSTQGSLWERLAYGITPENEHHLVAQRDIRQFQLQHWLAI

As to `CN(C)CC(c1ccc(O)cc1)C1(O)CCCCC1.O=C(O)CCC(=O)O` (centres unmarked) [ODV succinate], in [1], the “incidence of nausea, vomiting, diarrhea, abdominal pain, headache, vaso-vagal malaise, and/or trismus” value is recorded as “lower incidence”. For the same compound, the permeability entry in data set [2] is recorded as “improved”. Further, the bioavailability result in data set [3] is given as “improved”.
With `CN(C)CC(c1ccc(O)cc1)C1(O)CCCCC1` (centres unmarked) [ODV], the “inhibition of dopamine re-uptake” value at dopamine re-uptake is “weak inhibitors”. In addition, the “affinity for H1-histaminergic receptors” value in data set [4] is recorded as “no significant affinity”. Moreover, the “affinity for muscarinic receptors” value in the data set with muscarinic receptors was “no significant affinity”. For the same compound, the “affinity for α1-adrenergic receptors” value in the data set on α1-adrenergic receptors was “no significant affinity”. For the same compound, in data set [5], the “solubility compared with venlafaxine” value is “more soluble”.
Regarding `COc1ccc(C(CN(C)C)C2(O)CCCCC2)cc1` (racemic) [venlafaxine, (±)-1-[2-(dimethylamino)-1-(4-methoxyphenyl)ethyl]-cyclohexanol], the “inhibition of dopamine re-uptake” value on dopamine re-uptake is “weak inhibitors”. In addition, the “affinity for α1-adrenergic receptors” value in the data set on α1-adrenergic receptors was “no significant affinity”. Besides, the “inhibition of neuronal norepinephrine re-uptake” value in data set [6] is “potent inhibitors”.
